The text below walks through data of US20250179103A1, “6-OXODECAHYDROPYRROLO[1,2-A][1,5]DIAZOCINE AND 6-OXODECAHYDRO-4H-PYRROLO[2,1-D][1,5]THIAZOCINE DERIVATIVES AS STAT3 AND STAT6 MODULATORS FOR THE TREATMENT OF CANCER AND INFLAMMATORY CONDITIONS” (Recludix Pharma, Inc., priority 2022, published 2025).

Test [1] deals with T1, Recombinant STAT3 protein (STAT3(G127-I722)) (Homo sapiens, UniProt P40763).
T1 construct: Recombinant STAT3 protein (STAT3(G127-I722))
Nature of the test: STAT3 Fluorescence Polarization (FP) Assay. The class given is binding. The settings on record: STAT3(G127-I722) 25 nM, probe 5-FAM-GpYLPQTV-NH2 2 nM, 45-minute incubation. The procedure, abridged:
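STAT3(G127-I722), 25 nM, was mixed with 2 nM 5-FAM-GpYLPQTV-NH2 probe in HEPES pH 7.4 buffer with 1% DMSO and serially diluted compound. FP (mP) was read after 45 min at room temperature. IC50 came from nonlinear regression.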
Background: Fluorescence polarisation rises when a labelled molecule tumbles more slowly, as on binding a larger partner.

In test [2] the target is T2, Recombinant STAT6 protein (STAT6(W123-T658)) (Homo sapiens, UniProt P42226).
T2 construct: Recombinant STAT6 protein (STAT6(W123-T658))
T2 sequence (P42226 123-658): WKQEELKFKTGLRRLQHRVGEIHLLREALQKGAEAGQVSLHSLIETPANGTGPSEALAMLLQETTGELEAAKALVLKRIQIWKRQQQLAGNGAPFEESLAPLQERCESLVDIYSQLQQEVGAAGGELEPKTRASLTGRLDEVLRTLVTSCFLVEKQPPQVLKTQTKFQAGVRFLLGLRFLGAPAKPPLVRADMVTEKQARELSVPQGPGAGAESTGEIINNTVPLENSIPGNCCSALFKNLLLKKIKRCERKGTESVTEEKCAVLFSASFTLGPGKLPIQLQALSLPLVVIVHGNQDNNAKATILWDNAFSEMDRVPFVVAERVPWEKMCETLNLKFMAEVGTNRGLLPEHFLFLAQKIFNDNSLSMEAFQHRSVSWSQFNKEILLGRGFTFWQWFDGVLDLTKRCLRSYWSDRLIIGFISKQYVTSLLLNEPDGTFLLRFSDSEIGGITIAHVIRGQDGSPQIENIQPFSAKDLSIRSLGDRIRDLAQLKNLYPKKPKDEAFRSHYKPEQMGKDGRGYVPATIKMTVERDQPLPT
As to the kind of experiment: STAT6 Fluorescence Polarization (FP) Assay. The class given is binding. The settings on record: STAT6(W123-T658) 250 nM, probe 5-FAM-ApYKPFQDLI-NH2 2 nM, 45-minute incubation. Summed up:
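Displacement of a fluorescent phosphotyrosine peptide (5-FAM-ApYKPFQDLI-NH2, 2 nM) from STAT6(W123-T658) (250 nM), 1% DMSO, pH 7.4 HEPES buffer. After 45 min at room temperature, polarization (mP) was plotted versus log compound concentration and fitted by nonlinear regression to give IC50.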

T1 sequence (P40763 127-722): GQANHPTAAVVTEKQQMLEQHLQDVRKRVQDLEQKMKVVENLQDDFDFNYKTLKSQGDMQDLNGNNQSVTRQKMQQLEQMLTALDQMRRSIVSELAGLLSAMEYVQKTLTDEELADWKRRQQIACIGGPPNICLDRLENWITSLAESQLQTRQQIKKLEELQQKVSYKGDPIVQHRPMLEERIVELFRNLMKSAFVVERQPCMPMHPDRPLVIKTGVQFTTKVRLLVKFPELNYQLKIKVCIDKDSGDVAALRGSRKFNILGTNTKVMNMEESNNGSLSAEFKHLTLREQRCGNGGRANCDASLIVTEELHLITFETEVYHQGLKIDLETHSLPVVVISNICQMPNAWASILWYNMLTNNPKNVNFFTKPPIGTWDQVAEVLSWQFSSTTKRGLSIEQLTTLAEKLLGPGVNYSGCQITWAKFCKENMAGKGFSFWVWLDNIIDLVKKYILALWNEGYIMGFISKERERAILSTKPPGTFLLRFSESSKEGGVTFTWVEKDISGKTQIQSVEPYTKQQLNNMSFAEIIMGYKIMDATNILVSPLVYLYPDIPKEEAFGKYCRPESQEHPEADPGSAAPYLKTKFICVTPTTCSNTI

In the case of `N#C[C@H]1CN(C(=O)[C@@H]2CC[C@@H]3CN(C(c4ccccc4)c4ccccc4)CC[C@H](NC(=O)c4ccc5ccc(C(F)(F)P(=O)(O)O)cc5c4)C(=O)N32)C[C@@H]1c1ccccc1` (relative stereo) [Compound 209, ((7-(((5S,8S,10aR)-2-benzhydryl-8-((rel-trans)-3-cyano-4-phenylpyrrolidine-1-carbonyl)-6-oxodecahydropyrrolo[1,2-a][1,4]diazocin-5-yl)carbamoyl)naphthalen-2-yl)difluoromethyl)phosphonic acid], the half-maximal inhibitory concentration (IC50) in test [1] lay in the range of 1000 to 10000 nM; in test [2], 300 to 3000 nM.
Take `N#C[C@H]1CN(C(=O)[C@@H]2CC[C@@H]3CN(C(=O)OCc4ccccc4)CC[C@H](NC(=O)c4ccc5ccc(C(F)(F)P(=O)(O)O)cc5c4)C(=O)N32)C[C@@H]1c1ccccc1` (relative stereo) [Compound 213, ((7-(((5S,8S,10aR)-2-((benzyloxy)carbonyl)-8-((rel-trans)-3-cyano-4-phenylpyrrolidine-1-carbonyl)-6-oxodecahydropyrrolo[1,2-a][1,4]diazocin-5-yl)carbamoyl)naphthalen-2-yl)difluoromethyl)phosphonic acid]: the IC50 is 1000 to 10000 nM in test [1] and not above 300 nM in test [2].
The matching figures for `CCN1CC[C@H](NC(=O)c2ccc3ccc(C(F)(F)P(=O)(O)O)cc3c2)C(=O)N2[C@H](CC[C@H]2C(=O)N2C[C@H](c3ccccc3)[C@@H](C#N)C2)C1` (relative stereo) [Compound 227, ((7-(((5S,8S,10aR)-8-((rel-trans)-3-cyano-4-phenylpyrrolidine-1-carbonyl)-2-ethyl-6-oxodecahydropyrrolo[1,2-a][1,4]diazocin-5-yl)carbamoyl)naphthalen-2-yl)difluoromethyl)phosphonic acid]: 1000 to 10000 nM and not above 300 nM.
On to `N#C[C@H]1CN(C(=O)[C@@H]2CC[C@@H]3CN(C4CCC4)CC[C@H](NC(=O)c4ccc5ccc(C(F)(F)P(=O)(O)O)cc5c4)C(=O)N32)C[C@@H]1c1ccccc1` (relative stereo) [Compound 228, ((7-(((5S,8S,10aR)-8-((rel-trans)-3-cyano-4-phenylpyrrolidine-1-carbonyl)-2-cyclobutyl-6-oxodecahydropyrrolo[1,2-a][1,4]diazocin-5-yl)carbamoyl)naphthalen-2-yl)difluoromethyl)phosphonic acid], for which the IC50 is 1000 to 10000 nM in test [1] and not above 300 nM in test [2].
The matching figures for `Cc1ccc2[nH]nc(C(=O)N3CC[C@H](NC(=O)c4ccc5ccc(C(F)(F)P(=O)(O)O)cc5c4)C(=O)N4[C@H](CC[C@H]4C(=O)N4C[C@H](c5ccccc5)[C@@H](C#N)C4)C3)c2c1` (relative stereo) [Compound 233, ((7-(((5S,8S,10aR)-8-(rel-tran)-3-cyano-4-phenylpyrrolidine-1-carbonyl)-2-(5-methyl-1H-indazole-3-carbonyl)-6-oxodecahydropyrrolo[1,2-a][1,4]diazocin-5-yl)carbamoyl)naphthalen-2-yl)difluoromethyl)phosphonic acid]: 1000 to 10000 nM and not above 300 nM.
The matching figures for `Cc1ccc2[nH]nc(C(=O)N3CC[C@H]4CC[C@@H](C(=O)N5C[C@H](c6ccccc6)[C@@H](C#N)C5)N4C(=O)[C@@H](NC(=O)c4ccc5ccc(C(F)(F)P(=O)(O)O)cc5c4)C3)c2c1` (relative stereo) [Compound 236, ((7-(((5S,8S,10aR)-8-((rel-trans)-3-cyano-4-phenylpyrrolidine-1-carbonyl)-3-(5-methyl-1H-indazole-3-carbonyl)-6-oxodecahydropyrrolo[1,2-a][1,5]diazocin-5-yl)carbamoyl)naphthalen-2-yl)difluoromethyl)phosphonic acid]: 100 to 1000 nM and not above 300 nM.
`CCN1CC[C@H]2CC[C@@H](C(=O)N3C[C@@H](C#N)[C@H](c4cc[nH]c(=O)c4)C3)N2C(=O)[C@@H](NC(=O)c2ccc3ccc(C(F)(F)P(=O)(O)O)cc3c2)C1` (relative stereo) [Compound 240, ((7-(((5S,8S,10aR)-8-((rel-trans)-3-cyano-4-(2-oxo-1,2-dihydropyridin-4-yl)pyrrolidine-1-carbonyl)-3-ethyl-6-oxodecahydropyrrolo[1,2-a][1,5]diazocin-5-yl)carbamoyl)naphthalen-2-yl)difluoromethyl)phosphonic acid]: the half-inhibitory concentration (IC50) in test [1] was 1000 to 10000 nM; in test [2], 300 to 3000 nM.
The matching figures for `N#C[C@H]1CN(C(=O)[C@@H]2CC[C@@H]3CCN(CC(F)F)C[C@H](NC(=O)c4ccc5ccc(C(F)(F)P(=O)(O)O)cc5c4)C(=O)N32)CC[C@@H]1c1ccccc1` (relative stereo) [Compound 241, ((7-(((5S,8S,10aR)-8-((rel-trans)-3-cyano-4-phenylpiperidine-1-carbonyl)-3-(2,2-difluoroethyl)-6-oxodecahydropyrrolo[1,2-a][1,5]diazocin-5-yl)carbamoyl)naphthalen-2-yl)difluoromethyl)phosphonic acid]: 1000 to 10000 nM and 300 to 3000 nM.
As for `O=C(N[C@H]1CN(CC(F)F)CC[C@H]2CC[C@@H](C(=O)N3C[C@H](c4ccccc4)[C@@H](C(F)F)C3)N2C1=O)c1cc2cc(C(F)(F)P(=O)(O)O)ccc2s1` (relative stereo) [Compound 242, ((2-(((5S,8S,10aR)-3-(2,2-difluoroethyl)-8-((rel-trans)-3-(difluoromethyl)-4-phenylpyrrolidine-1-carbonyl)-6-oxodecahydropyrrolo[1,2-a][1,5]diazocin-5-yl)carbamoyl)benzo[b]thiophen-5-yl)difluoromethyl)phosphonic acid], the figures for the IC50 in test [1] and in test [2] were 100 to 1000 nM and not above 300 nM, respectively.
For `N#C[C@H]1CN(C(=O)[C@@H]2CC[C@@H]3CCN(CC(F)F)C[C@H](NC(=O)c4ccc5ccc(C(F)(F)P(=O)(O)O)cc5c4)C(=O)N32)C[C@@H]1c1cc(F)cc(F)c1` (relative stereo) [Compound 246, ((7-(((5S,8S,10aR)-8-((rel-trans)-3-cyano-4-(3,5-difluorophenyl)pyrrolidine-1-carbonyl)-3-(2,2-difluoroethyl)-6-oxodecahydropyrrolo[1,2-a][1,5]diazocin-5-yl)carbamoyl)naphthalen-2-yl)difluoromethyl)phosphonic acid], the results for the IC50 in test [1] and in test [2] were 1000 to 10000 nM and 300 to 3000 nM, respectively.
On to `COC(=O)N1CC[C@H]2CC[C@@H](C(=O)N3C[C@H](c4ccccc4)[C@@H](C#N)C3)N2C(=O)[C@@H](NC(=O)c2cc3cc(C(F)(F)P(=O)(O)O)ccc3s2)C1` (relative stereo) [Compound 250, ((2-(((5S,8S,10aR)-8-((rel-trans)-3-cyano-4-phenylpyrrolidine-1-carbonyl)-3-(methoxycarbonyl)-6-oxodecahydropyrrolo[1,2-a][1,5]diazocin-5-yl)carbamoyl)benzo[b]thiophen-5-yl)difluoromethyl)phosphonic acid], for which the IC50 was 100 to 1000 nM in test [1] and not above 300 nM in test [2].
Regarding `CC(C)CN1CC[C@H]2CC[C@@H](C(=O)N3C[C@@H](C#N)[C@H](c4ccccc4)C3)N2C(=O)[C@@H](NC(=O)c2cc3cc(C(F)(F)P(=O)(O)O)ccc3s2)C1` (relative stereo) [Compound 279, ((2-(((5S,8S,10aR)-8-((rel-trans)-3-cyano-4-phenylpyrrolidine-1-carbonyl)-3-isobutyl-6-oxodecahydropyrrolo[1,2-a][1,5]diazocin-5-yl)carbamoyl)benzo[b]thiophen-5-yl)difluoromethyl)phosphonic acid], the values for the concentration for half-maximal inhibition (IC50) in test [1] and in test [2] were 100 to 1000 nM and not above 300 nM, respectively.
On the same counts, the results for `N#CC1CN(C(=O)C2CCC3CCS(=N)(=O)CC(NC(=O)c4cc5cc(C(F)(F)P(=O)(O)O)ccc5s4)C(=O)N32)CC1c1ccccc1` (single isomer, unassigned) [Compound 7] are 1000 to 10000 nM and 300 to 3000 nM.
Regarding `N#C[C@@H]1CN(C(=O)[C@@H]2CC[C@@H]3CCS(=O)(=O)C[C@H](NC(=O)c4cc5cc(C(F)(F)P(=O)(O)O)ccc5s4)C(=O)N32)C[C@H]1c1ccccc1` (single isomer, unassigned) [Compound 8], the results for the IC50 in test [1] and in test [2] were 100 to 1000 nM and not above 300 nM, respectively.
Take `CC(=O)N1CC[C@H]2CC[C@@H](C(=O)N3C[C@@H](C#N)[C@]4(C3)C(=O)Nc3ccccc34)N2C(=O)[C@@H](NC(=O)c2cc3cc(C(F)(F)P(=O)(O)O)ccc3s2)C1` (single isomer, unassigned) [Compound 12, ((2-(((5S,8S,10aR)-3-acetyl-8-((3S,4′S or 3R,4′R)-4′-cyano-2-oxospiro[indoline-3,3′-pyrrolidine]-1′-carbonyl)-6-oxodecahydropyrrolo[1,2-a][1,5]diazocin-5-yl)carbamoyl)benzo[b]thiophen-5-yl)difluoromethyl)phosphonic acid]: the IC50 is not above 100 nM in test [1] and not above 300 nM in test [2].

By IC50 is commonly meant the point on the concentration scale where inhibition reaches its midpoint.
